Laboratory results as given in patent US20100233145A1, “COMPOSITION USED AS A NUTRITIONAL SUPPLEMENT AND MEDICATION FOR THE TREATMENT OF DEGENERATIVE VISUAL DISORDERS AND INFLAMMATION” (APO PHARMACEUTICALS INTERNATIONAL B.V., priority 2006, published 2010).

System: retina explants from rd1 mice
Experiment: in vitro organ culture of retina explants under serum-free conditions
Format: cell-based, mouse
Settings: for Number of rows of photoreceptors average ± SD, (n): rd/rd retina explants, glutathione 3 μg/ml, ALA 2 μg/ml, zeaxanthin 0.3 μg/ml, lutein 0.3 μg/ml, control 1.5 ± 0.3
Procedure: The in vitro-experiments were performed on an organ culture of retina explants under serum-free conditions, as described in […], Ahuja P, Holmqvist B, Azadi […], van Veen T (2001) “Mouse retina explants after long-term culture in serum-free medium.”, J Chem Neuroanat 22: 263-273. The described technique was carried out on retina explants from rd1 mice as used in the in-vivo experiments. Retinas of rd1 mice were transferred at PN3 to an in vitro culture on flat nitrocellulose membranes and were kept in […] medium for 8 and 21 days, corresponding with the age PN11 and […] of the animals. All experiments were performed paired, wherein untreated retinas were compared to retinas which were exposed to a treatment. […] In order to achieve these concentrations the correct measured quantities of stock solution as described for the in vivo experiments were added to the medium. […] The rows of photoreceptors in the outer nuclear layer (ONL) were counted in 5 slices of each composition, wherein of each slice six different sections were analysed corresponding with the sections in the in vivo experiments. The differences between treated and untreated retinas were compared statistically with Student's paired t-test, or Student's unpaired t-test, wherein differences in which p<0.05 were deemed significant.

## CC1=C(/C=C/C(C)=C/C=C/C(C)=C/C=C/C=C(C)/C=C/C=C(C)/C=C/C2=C(C)C[C@@H](O)CC2(C)C)C(C)(C)C[C@H](O)C1 [zeaxanthin, (3R, 3′R)-β,β-carotene-3,3′-diol]
  Number of rows of photoreceptors average ± SD, (n): 1.9 ± 0.7 (n-6) rows

## O=C(O)CCCCC1CCSS1 (stereo not drawn) [alpha lipoic acid, thioctic acid]
  Number of rows of photoreceptors average ± SD, (n): 1.8 ± 0.5 (n-6) rows

## N[C@@H](CCC(=O)N[C@@H](CS)C(=O)NCC(=O)O)C(=O)O [glutathione, L-glutathione]
rd1 explant, FIGS. 6a and 6b
  number of rows of photoreceptor cells, treated versus untreated explant: almost the same
  Number of rows of photoreceptors average ± SD, (n): 2.0 ± 0.9 (n-6) rows

## CC1=C[C@H](O)CC(C)(C)[C@H]1/C=C/C(C)=C/C=C/C(C)=C/C=C/C=C(C)/C=C/C=C(C)/C=C/C1=C(C)C[C@@H](O)CC1(C)C [Lutein, (3R, 3′R, 6′R)-(3,c-carotene-3,3′-diol]
  Number of rows of photoreceptors average ± SD, (n): 2.0 ± 0.8 (n-6) rows
